Calls of active or inactive are those of the source.
Key:
[1] = microbe, parasite or virus in culture; type: functional; settings: Mycobacterium tuberculosis
[2] = biological target: T1, Protein skinhead-1 (Caenorhabditis elegans, UniProt P34707); type: functional
T1 sequence (P34707 whole entry): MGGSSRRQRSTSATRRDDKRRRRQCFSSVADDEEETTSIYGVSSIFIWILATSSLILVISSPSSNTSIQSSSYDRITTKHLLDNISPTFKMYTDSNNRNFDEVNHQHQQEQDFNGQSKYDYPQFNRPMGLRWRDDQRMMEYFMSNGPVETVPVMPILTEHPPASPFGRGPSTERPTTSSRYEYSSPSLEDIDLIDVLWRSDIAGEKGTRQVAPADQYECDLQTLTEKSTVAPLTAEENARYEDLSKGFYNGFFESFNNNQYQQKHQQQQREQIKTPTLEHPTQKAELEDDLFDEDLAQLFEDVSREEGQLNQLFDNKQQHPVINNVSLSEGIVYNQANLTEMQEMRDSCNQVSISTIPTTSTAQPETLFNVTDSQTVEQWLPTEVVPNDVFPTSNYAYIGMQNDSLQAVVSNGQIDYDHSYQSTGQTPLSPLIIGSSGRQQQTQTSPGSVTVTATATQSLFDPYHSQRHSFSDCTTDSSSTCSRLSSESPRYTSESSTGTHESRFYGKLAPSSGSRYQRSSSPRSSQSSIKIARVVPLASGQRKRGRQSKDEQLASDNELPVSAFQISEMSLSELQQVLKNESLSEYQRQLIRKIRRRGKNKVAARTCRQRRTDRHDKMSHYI

[3] = C. albicans growth with fluconazole, confirmation, fluorescence, retest (AID 2467); type: functional, cell-based
[4] = NIH-3T3 fibroblast cytotoxicity, dose response, cytotoxicity control, cell-based, fluorescence, Alamar Blue, secondary assay (AID 2327); type: functional;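 note: NIH-3T3 mouse fibroblasts cultured with fluconazole at 8 µg/mL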
[5] = growth suppression of beta-catenin-knockout colon cells, dose response, cell-based, HCT116, human colon tumor (AID 1045); type: functional;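 note: HCT116 colon tumor cells with beta catenin knocked out; cells exposed to compound for 60 hours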
[6] = growth suppression of PTEN-null colon cells, dose response, cell-based, HCT116 PTEN knockout (AID 1047); type: functional;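 note: HCT116 colon tumor cells with PTEN knocked out; cells exposed to compound for 60 hours before readout; potency for loss of cell viability measured by luminescence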
[7] = biological target: T2, Corticotropin-releasing factor receptor 2/Corticotropin-releasing factor-binding protein (Homo sapiens, UniProt P24387+Q13324); test: activators of CRF receptor 2 with binding protein – uHTS hits, confirmation (AID 602473); type: functional; settings: read-out: EC50_Mean
T2 sequence (Q13324 whole entry): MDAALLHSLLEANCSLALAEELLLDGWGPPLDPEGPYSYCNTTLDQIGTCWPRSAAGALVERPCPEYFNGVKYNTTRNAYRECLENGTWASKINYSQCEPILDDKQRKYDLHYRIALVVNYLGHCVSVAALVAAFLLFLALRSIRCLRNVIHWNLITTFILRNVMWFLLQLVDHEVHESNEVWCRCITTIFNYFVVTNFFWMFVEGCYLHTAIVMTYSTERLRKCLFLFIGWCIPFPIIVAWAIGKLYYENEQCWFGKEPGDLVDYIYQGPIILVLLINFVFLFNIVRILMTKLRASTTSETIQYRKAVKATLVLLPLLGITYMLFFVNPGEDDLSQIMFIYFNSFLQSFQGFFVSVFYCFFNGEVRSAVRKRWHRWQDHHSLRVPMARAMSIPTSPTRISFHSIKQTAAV
T2 sequence (P24387 whole entry): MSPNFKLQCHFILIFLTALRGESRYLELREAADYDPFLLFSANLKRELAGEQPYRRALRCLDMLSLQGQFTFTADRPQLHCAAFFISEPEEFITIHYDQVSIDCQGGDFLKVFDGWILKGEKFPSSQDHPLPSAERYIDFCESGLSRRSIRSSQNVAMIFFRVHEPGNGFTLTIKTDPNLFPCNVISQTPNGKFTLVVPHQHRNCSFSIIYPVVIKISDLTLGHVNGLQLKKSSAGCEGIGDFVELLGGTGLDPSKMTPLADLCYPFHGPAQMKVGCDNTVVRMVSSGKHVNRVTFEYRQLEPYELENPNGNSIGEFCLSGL

[8] = biological target: T3, Short transient receptor potential channel 4 (Mus musculus, UniProt Q9QUQ5); test: mouse TRPC4 channel inhibitors, dose response, cell-based, HEK293 TRPC4/mu-opioid, Fluo-4 calcium (AID 434942); type: functional;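 note: potency of inhibitors blocking the TRPC4 calcium response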
T3 sequence (Q9QUQ5 whole entry): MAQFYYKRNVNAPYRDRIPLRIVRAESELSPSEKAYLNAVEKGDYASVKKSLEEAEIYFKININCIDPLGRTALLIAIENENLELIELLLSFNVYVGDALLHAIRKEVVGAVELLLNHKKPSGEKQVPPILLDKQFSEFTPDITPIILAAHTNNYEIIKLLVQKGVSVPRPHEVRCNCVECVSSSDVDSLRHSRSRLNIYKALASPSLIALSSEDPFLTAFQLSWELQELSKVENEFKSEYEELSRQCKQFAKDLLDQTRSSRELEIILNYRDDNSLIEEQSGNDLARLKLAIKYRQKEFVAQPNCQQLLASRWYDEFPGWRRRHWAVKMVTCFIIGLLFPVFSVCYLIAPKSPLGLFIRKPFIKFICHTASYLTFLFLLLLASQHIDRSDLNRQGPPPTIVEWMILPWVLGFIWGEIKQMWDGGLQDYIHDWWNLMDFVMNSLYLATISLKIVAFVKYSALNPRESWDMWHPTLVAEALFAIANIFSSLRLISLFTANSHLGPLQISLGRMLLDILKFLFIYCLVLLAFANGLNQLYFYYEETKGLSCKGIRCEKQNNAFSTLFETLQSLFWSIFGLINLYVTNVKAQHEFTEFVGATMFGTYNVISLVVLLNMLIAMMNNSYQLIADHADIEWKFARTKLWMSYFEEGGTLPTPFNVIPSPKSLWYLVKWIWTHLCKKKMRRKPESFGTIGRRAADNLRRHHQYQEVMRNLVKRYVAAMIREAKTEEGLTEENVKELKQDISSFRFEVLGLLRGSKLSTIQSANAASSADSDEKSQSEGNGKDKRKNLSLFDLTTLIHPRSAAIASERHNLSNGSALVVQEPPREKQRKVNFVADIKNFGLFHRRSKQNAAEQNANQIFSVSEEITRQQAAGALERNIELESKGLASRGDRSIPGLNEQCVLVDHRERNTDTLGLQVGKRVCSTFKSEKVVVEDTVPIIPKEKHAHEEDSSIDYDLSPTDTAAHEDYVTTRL

[9] = biological target: T4, Heat shock factor protein 1 (Mus musculus, UniProt P38532); test: HSF1 potentiators in luciferase reporter cells, confirmation, cell-based, NIH3T3, luminescence, dose retest (AID 435004); type: functional;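 note: stress induced by proteasome inhibitor MG132 added 30 min after compound; luciferase reporter driven by HSF1 response element in NIH3T3 cells; actives raise luminescence as potentiators of the MG132 stress response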
T4 sequence (P38532 whole entry): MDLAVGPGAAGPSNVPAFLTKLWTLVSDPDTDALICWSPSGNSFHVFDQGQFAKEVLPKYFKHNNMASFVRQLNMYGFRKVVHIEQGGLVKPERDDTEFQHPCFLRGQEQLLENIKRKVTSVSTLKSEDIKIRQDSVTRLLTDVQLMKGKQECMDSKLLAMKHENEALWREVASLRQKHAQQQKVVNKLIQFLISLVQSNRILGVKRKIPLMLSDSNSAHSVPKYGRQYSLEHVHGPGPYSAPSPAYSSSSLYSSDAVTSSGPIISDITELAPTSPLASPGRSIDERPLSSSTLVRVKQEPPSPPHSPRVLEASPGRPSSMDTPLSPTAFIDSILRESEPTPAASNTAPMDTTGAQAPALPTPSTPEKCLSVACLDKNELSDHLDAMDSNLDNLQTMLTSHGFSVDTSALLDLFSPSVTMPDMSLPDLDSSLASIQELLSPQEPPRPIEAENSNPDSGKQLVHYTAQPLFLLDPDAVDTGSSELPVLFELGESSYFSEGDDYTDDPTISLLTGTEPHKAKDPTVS

[10] = biological target: T3, Short transient receptor potential channel 4; test: mouse TRPC4 channel activators, dose response, cell-based, HEK293 TRPC4/mu-opioid, Fluo-4 calcium (AID 434937); type: functional

Cc1cc(=O)oc2c(C)c(OCC(=O)N3CCN(C(=O)C4COc5ccccc5O4)CC3)ccc12 (stereo not given)
CC50 [1]: > 40 µM (active)

Cc1cccc(NC(=O)c2ccc3c(c2)C(=O)N(c2ccccc2C)C3=O)n1
IC50 [2]: > 100 µM (inactive)

ClCc1nc2ccccc2c2ccccc12
CC50 [1]: 18.6 µM (active)

COc1ccc(C(C(=O)NC2CCCCC2)N(Cc2cccs2)C(=O)Cc2c[nH]c3ccccc23)cc1 (stereo not given)
EC50 [3]: > 38 µM (not active) | EC50 [4]: > 150 µM (inactive) | IC50 [2]: > 100 µM (inactive)

O=C(C1CCCN(S(=O)(=O)c2ccc(F)cc2)C1)N(Cc1cccs1)C1CC1 (stereo not given)
EC50 [5]: 137 µM (active) | EC50 [6]: 51.6 µM (active)

CN(C)CCNC(=O)c1ccc(COc2ccc(Cl)cc2Cl)cc1
EC50 [5]: 9 µM (active) | EC50 [6]: 10.7 µM (active)

C#CC[N+](C)(C)CCCCCCCC
EC50 [5]: 16 µM (active) | EC50 [7]: > 53 µM (inactive) | EC50 [6]: 13.6 µM (active)

N#Cc1cc2c(nc1SCC(=O)Nc1cc(Cl)ccc1Cl)C1CCN2CC1
EC50 [5]: 3.02 µM (active) | EC50 [6]: 6 µM (active)

COc1ccccc1CNCC(c1ccccc1)c1ccccc1
EC50 [8]: 4.73 µM (active) | EC50 [9]: > 260 µM (inactive)

COc1cc(C(=O)NC(=S)NNC(=O)[C@H]2C[C@@H]2c2ccccc2)cc(OC)c1OC
EC50 [10]: 3.76 µM (active)

C=C(C)Cn1c(SCC)nc2ccccc2c1=O
EC50 [8]: 4.73 µM (active)

COc1ccc(C2C(C(C)=O)=C(O)C(=O)N2c2ccc(Br)cc2)cc1 (stereo not given)
EC50 [8]: 0.668 µM (active)

Source: ChEMBL document CHEMBL1201862, “PubChem BioAssay data set” (2004)
